# Data from US12083091B2, “Inhibitors of glucosylceramide degradation in the treatment of diseases of the motor units” (priority 2016, dated 2024).
# Key:
# non-transgenic mice [1] = conditions: mouse, in vivo
# non-transgenic mice [2] = test: Sciatic nerve injury (crush) in non-transgenic mice: functional recovery and re-innervation; type: in vivo
# Description: Sciatic Nerve Injury: Peripheral nerve injury was performed in order to induce muscle denervation and axonal regeneration. Non-transgenic mice were anesthetized with ketamine chlorohydrate (100 mg/kg) and xylazine (5 mg/kg). The sciatic nerve was exposed at mid-thigh level and crushed with fine forceps for 30 s. The skin incision was sutured, and mice were allowed to recover. The hind limb, contralateral to the lesion, served as control. Mice were treated with CBE (10 mg/kg/d) for 12 days, or with ambroxol (120-150 mg/kg/day) for 10 days, starting the day before surgery. Mice were followed on a daily basis. Body mass, muscle strength of individual hind limbs (mean of three tests was recorded), and locomotor profile (catwalk, Noldus) were analyzed.
# Here, we sought to determine the effect of CBE on the motor recovery after nerve injury in non-transgenic mice. CBE was administrated on a daily basis (10 mg/kg/day), from […] until the end of the study, 12 days after injury.
# SOD1 mice = test: SOD1(G86R) mice, animal model of ALS: disease onset, motor function, motor unit histology, survival; type: in vivo
# Description: Ambroxol was given orally in the drinking water. […] Non-transgenic littermates served as controls. […] Average speed, paw swing and stride length were measured. […] Non-transgenic littermates served as controls.
# Spinal cord: Lumbar spinal cord fixed in paraformaldehyde 4% were used for studying the distribution of GM1a around motor neurons. Coronal section 40 μm thick were realized with a vibratome and were stained with an anti-[…] (1/100, Millipore, France) and an alexa594 conjugated goat (1/200, Jackson) antibodies. GM1a was detected with the cholera toxin sub-unit beta coupled with an Allexa488 dye (1/200, ThermoFisher). Fluorescence intensity of GM1a was calculated with an image processing program (ImageJ). For motor neuron couting, all neurons located in the ventral horn, that were >400 μm^2 in size and ChAT positive were considered as alpha motor neurons. Six sections of spinal cord that were apart over a length of 0.24 mm were counted.
# Muscle bundles: Tibialis anterior muscles fixed in paraformaldehyde 4% were dissected into bundles under a binocular microscope. Bundles were collected from at least three different parts of the muscle. Acetylcholine receptors in the postsynaptic apparatus of neuromuscular junctions were labeled with rhodamine-conjugated α-bungarotoxin (Sigma-Aldrich). Immunofluorescent labeling of nerve terminals was performed with a rabbit polyclonal anti-synaptophysin antibody diluted 1/200 (Abcam, Cambridge, UK), and Alexa conjugated goat anti-rabbit diluted 1/500 (Jackson). Neuromuscular junction integrity was assessed by studying the colocalization of synaptophysin and bungarotoxin signal. […].
# Coronal muscle sections: Twenty-micrometer sections were obtained by cutting isopentane fresh-frozen tibialis anterior muscles perpendicular to the muscle axis with a cryostat at −20° C. (Leica, Nanterre, France). Acetylcholine receptors in the postsynaptic apparatus of neuromuscular junctions were labeled with rhodamine-conjugated α-bungarotoxin (Sigma-Aldrich). GM1a distribution was labeled with the cholera toxin sub-unit beta coupled with an Allexa488 dye (1/200, ThermoFisher).
# [3] = test system: muscle and spinal transcriptomes of SOD1 mice; test: Muscle and spinal transcriptomes of SOD1 mice after CBE treatment (GO biological functions of restored genes); type: in vivo; conditions: spinal cord and muscle
# GCase = test: Total GCase activity in the spinal cord after CBE treatment; type: in vivo, mice; conditions: CBE 10 mg/kg/day, intraperitoneal
# [4] = test system: co-culture of spinal explants and myoblasts; test: Co-culture of spinal explants and myoblasts: neurite network / area of innervation; type: cell-based; conditions: ambroxol 100 μM in culture medium
# Description: We next sought to determine whether another inhibitor of GlcCer degradation could support axonal plasticity and improve the phenotype of SOD1 mice. We used ambroxol, which is an inhibitor of GBA2 activity (Narita, A. et al. Ambroxol chaperone therapy for neuronopathic Gaucher disease: A pilot study. Ann. Clin. Transl. Neurol. 3, 200-215 (2016)). First, ambroxol (100 μM) was added to the culture medium of a co-culture of spinal explants and myoblasts. […] Next, ambroxol was given per os to SOD1 mice (120-150 mg/kg/day) from day 75 to day 95. […] In a second cohort of mice, the treatment was initiated at disease onset to study ambroxol's effect on late disease stage and survival. […] Next, ambroxol was given to mice subjected to sciatic nerve injury in order to determine its effects on peripheral nerve regeneration.
# [5] = CBE 10 mg/kg/day, 12 days after injury
# [6] = CBE 10 mg/kg/day, until 12 days after injury, vs placebo
# [7] = ambroxol 120-150 mg/kg/day for 10 days
# [8] = ambroxol, second cohort, treatment initiated at disease onset
compound,measurement,setting,value
"OC1C(O)C(O)C2OC2C1O (centres unmarked) [CBE, 1,2-anhydro-myo-inositol]",loss of motor function in non-transgenic mice,non-transgenic mice [1],without inducing loss of motor function
same,side effects (body mass and muscle strength evolution upon treatment),non-transgenic mice [1],does not induce side effects
same,"locomotor profile of the injured paw (contact area, hindlimb step cycle)",non-transgenic mice [2]; [5],closer to the contralateral side
same,muscle fibrillation at sacrifice,non-transgenic mice [2]; [5],less muscle fibrillation
same,muscle strength recovery after sciatic nerve injury,non-transgenic mice [2]; [6],"occurred faster, by several days"
same,time to toe spreading after sciatic nerve injury,non-transgenic mice [2]; [6],"occurred faster, by several days"
same,"fibrillation events (electromyogram), sign of muscle denervation, vs SOD1 placebo group","SOD1 mice; CBE 10 mg/kg/day i.p., 95 days of age",less frequently detected
same,number of fully innervated NMJs,"SOD1 mice; CBE 10 mg/kg/day i.p., 95 days of age, tibialis anterior",comparable to wild type and significantly higher to SOD1 mice receiving the placebo
same,loss of large motor neurons in lumbar spinal cord compared to wild type,"SOD1 mice; CBE 10 mg/kg/day i.p., 95 days of age, placebo SOD1 almost 60% loss",30%
same,presence of axonal GM1a at presynaptic axons of NMJs,"SOD1 mice; CBE 10 mg/kg/day i.p., SOD1 mice",clearly detectable
same,"development of locomotor impairments (average speed, stride length, paw swing; catwalk)","SOD1 mice; CBE 10 mg/kg/day i.p., SOD1 mice at 95 days of age",completely prevented
same,delay of disease onset (onset of muscle strength loss) compared to the placebo group,"SOD1 mice; CBE 10 mg/kg/day i.p., from 75 to 95 days of age",6 days
same,astrocyte activation (GFAP staining fluorescence intensity),"SOD1 mice; CBE 10 mg/kg/day i.p., spinal cord ventral horn",no influence
same,global transcriptomic deregulations in SOD1 mice,[3],partially corrected
same,GCase activity in the spinal cord,GCase,decrease
"Nc1c(Br)cc(Br)cc1CN[C@H]1CC[C@H](O)CC1 [ambroxol, trans-4-(2-Amino-3,5-dibrombenzylamino)-cyclohexanol]",muscle strength of ipsilateral hind paws after sciatic nerve injury,non-transgenic mice [2]; [7],significantly improved
same,peripheral nerve regeneration after injury,non-transgenic mice [2]; [7],significantly improves
same,correct muscle re-innervation,"non-transgenic mice [2]; ambroxol 120-150 mg/kg/day, ten days after injury",significantly improves
same,innervation status (NMJ integrity),"SOD1 mice; ambroxol 120-150 mg/kg/day per os, day 75 to 95, at 95 days of age",improved
same,delay of first loss of muscle strength (disease onset) compared to placebo,"SOD1 mice; ambroxol 120-150 mg/kg/day per os, day 75 to day 95",~10 days
same,improvement of total survival,SOD1 mice; [8],more than 8 days
same,muscle strength,SOD1 mice; [8],significantly improved
same,neurite network (total area of innervation) of co-culture,[4],improved
